Reference: patent publication US20240100023A1, “Compositions and Methods For Treating Spinal Cord Injuries” (priority 2020, published 2024)

What was measured:
adult rats = test: Phrenic burst amplitude after C2 spinal cord hemisection (C2Hx); type: in vivo, Rat; conditions: two weeks after C2Hx, 15 mg/k, i.v.
Description: In a preliminary examination of the therapeutic potential of ampakines for treating SCI, Wollman and coworkers (2020^16) reported that ampakines may stimulate phrenic activity after incomplete cervical spinal cord injury (SCI) in anesthetized rats. […] To competently address the role of ampakines in alleviating neural and motor function deficits in SCI subjects, Applicants present herein a range of findings, illustrating a diverse array of potent ampakine activities effective for SCI treatment. Among these findings, two low impact ampakines, CX717 and CX1739, potently stimulate diaphragm muscle activation and breathing in freely moving, non-anesthetized rats following SCI. ^16 Wollman L B, Streeter K A, Fusco Gonzalez-Rothi E J, Sandhu M S, Greer J J, Fuller D D. Exp Neural. 2020 December; 334:113 doi: 10.1016/j.expneurol.2020.113465. Epub 2020 September PMID: 32949571.
Exemplifying the efficacy of combining Ampakine SCI treatment with secondary therapeutic intervention, Applicants determined in a predictive animal model that pairing ampakine treatment with a single bout of acute hypoxia (5-min, arterial partial pressure of O2˜50 mmHg) beneficially impacts phrenic bursting, with some rats showing a large facilitation that exceeds the response compared to ampakine-only treated subjects. […]

hippocampal slices = conditions: male, Sprague-Dawley, rat
Rat (SD) = test: Radial arm maze - spatial memory; type: in vivo; conditions: for Minimum Effective Dose, radial arm maze - spatial memory: Rat (SD), IP
Description: Yet another animal model for evaluating ampakine drug activity employed herein is the well-known and widely accepted Radial Arm Maze model. CX717 was tested for its ability to improve the performance of aged rats in an eight-arm radial maze using a cross-over design study. This behavioral test uses a standard eight-arm radial maze wherein five arms were open and baited with food pellets for the first morning session. Each animal was allowed to consume the food rewards present in the open arms and was then returned to its home cage. Six hours later animals were returned to the maze, wherein all eight-arms were open, but only the three arms previously closed contained food rewards. Scoring was based on the number of correct choices before an incorrect choice (re-entering an arm that was visited during the morning acquisition session) was made and on the total number of incorrect choices made before all three of the still baited arms were visited. CX717 was tested at six doses (0.03, 0.1, 0.3, 1, 3 and 10 mg/kg in hydroxypropyl β-cyclodextran, i.p.), administered 30 min prior to the start of the morning acquisition session and no drug was given prior to the second trial six hours later.
For CX1739 male Sprague-Dawley rats were trained to perform the win shift assay on the radial arm maze for approximately 10 weeks prior to the study. On each day of training and testing, each rat completed one trial, split into a sample phase and a test phase. During the sample phase, the rat was placed on a 12-arm radial arm maze surrounded by visual cues. Food wells at the end of each arm were baited with sucrose pellets but access to three arms, selected randomly, was blocked with a clear plastic divider at the arm entrance. The rat was allowed 5 minutes to search the maze and collect the available food pellets before being removed from the maze. Fifteen minutes later the rat was returned to the maze for the test phase of the trial. During the test phase, the rat was allowed access to all 12 arms of the maze but only the arms that had been blocked previously were baited with sucrose pellets. […]

Rat (Lister) = test: 5 Choice serial reaction time task; type: in vivo; conditions: IP
Description: Another useful animal model for evaluating ampakine activity is the Five Choice Serial Reaction Time Task in Rats. This assay requires rats to provide a single nose poke in response to a light stimulus presented in one of five locations within a 9-hole chamber. With a correct response a reward is delivered that the rat collects from the food magazine at the rear of the chamber. The withdrawal of its head from the food magazine initiates a short inter-trial interval followed by the presentation of the next randomly presented stimulus. An incorrect response results in a time out period (non-reinforcement) followed by the initiation of a new trial. Groups of 12 rats were used in this study, and all rats received all treatments using a randomized sequence. For evaluation using this model, CX1739 was selected as the exemplary low impact ampakine, administered at doses of 3 and 10 mg/kg i.p. 20 min prior to the start of the study.

Structure (SMILES) | Increase of contralateral (CL) phrenic burst amplitude (adult rats) [% BL] | Increase of ipsilateral (IL) phrenic burst amplitude (adult rats) | Concentration at which seizure activity is seen in hippocampal slices (hippocampal slices) [µM] | Minimum Effective Dose, radial arm maze - spatial memory (Rat (SD)) [mg/kg] | Minimum Effective Dose, 5 choice serial reaction time task (Rat (Lister)) [mg/kg] | Dose producing the maximal effect / optimal dose in the maze assays (Rat (SD); ip) [mg/kg]
O=C(c1ccc2nonc2c1)N1CCOCC1 [CX717, 1-(benzofurazan-5-ylcarbonyl)morpholine] | 47±26 | 61±46 % baseline, BL | > 600 | 0.3 |  | 
CN(C(=O)c1ccc2nonc2c1)C1CCOCC1 [CX1739, N-Methyl-N-tetrahydro-2H-pyran-4-yl-[2,1,3]-benzoxadiazole-5-carboxamide] |  |  |  | 0.3 | 3 | 0.3
